Experimental data from patent US7439243B2, “Piperazinyl-quinoline derivatives useful for the treatment of CNS disorders” (Glaxo Group Limited, priority 2003, dated 2008).
Where a name gives a salt, the structure may show the parent alone. Read-outs that look alike come from different tables or passages of the source.

Target: human cloned 5-HT6 receptors (Homo sapiens, UniProt P50406)
Test: 5-HT6 receptor affinity (procedures outlined in WO98/27081)
Type: binding
From the text: Compounds can be tested following the procedures outlined in WO98/27081.

Chain of human cloned 5-HT6 receptors (P50406 whole entry): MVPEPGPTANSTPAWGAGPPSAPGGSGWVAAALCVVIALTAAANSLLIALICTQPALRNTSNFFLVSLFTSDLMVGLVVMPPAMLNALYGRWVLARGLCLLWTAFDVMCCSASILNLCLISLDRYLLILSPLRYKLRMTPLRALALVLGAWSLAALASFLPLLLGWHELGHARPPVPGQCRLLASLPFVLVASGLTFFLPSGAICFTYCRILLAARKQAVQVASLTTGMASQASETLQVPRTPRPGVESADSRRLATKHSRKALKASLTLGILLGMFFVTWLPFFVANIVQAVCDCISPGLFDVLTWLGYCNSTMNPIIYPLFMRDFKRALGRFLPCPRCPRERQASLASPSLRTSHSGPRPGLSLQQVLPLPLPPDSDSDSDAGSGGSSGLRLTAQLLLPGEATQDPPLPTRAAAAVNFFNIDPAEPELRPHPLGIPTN

Clc1cccc(Cc2cnc3c(N4CCNCC4)cccc3c2)c1 [Example E1, 3-[(3-Chlorophenyl)methyl]-8-(1-piperazinyl)quinoline hydrochloride]
Ki: < 31.6 nM

O=C(c1cccc(Cl)c1)c1cnc2c(N3CCNCC3)cccc2c1 [Example E2, (3-Chlorophenyl)[8-(1-piperazinyl)-3-quinolinyl]methanone hydrochloride]
Ki (human cloned 5-HT6 receptors, read-out: pKi (converted)): < 31.6 nM
